The values that follow come from patent publication US8642633B2, “Di-substituted amides for enhancing glutamatergic synaptic responses” (Cortex Pharmaceutical, Inc., priority 2007, dated 2014).

For one series, the system named is AMPA receptor. In words: In vivo electrophysiology: field EPSP amplitude in the dentate gyrus of anesthetized animals. More on the design: species or system rat. Particulars: rat, 10mpk i.p. On the procedure: A. Enhancement of AMPA Receptor Function In Vivo.
Synaptic responses mediated by AMPA receptors are increased according to the method of the invention, using the compounds described herein.
(§1) The electrophysiological effects of the invention compounds were tested in vivo in anesthetized animals according to the following procedures. Animals are maintained under anesthesia by phenobarbital administered using a Hamilton syringe pump. Stimulating and recording electrodes are inserted into the perforant path and dentate gyrus of the hippocampus, respectively. Once electrodes are implanted, a stable baseline of evoked responses are elicited using single monophasic pulses (100 μs pulse duration) delivered at 3/min to the stimulating electrode. Field EPSPs are monitored until a stable baseline is achieved (about 20-30 min), after which a solution of test compound is injected intraperitoneally and evoked field potentials are recorded. Evoked potentials were recorded for approximately 2 h following drug administration or until the amplitude of the field EPSP returns to baseline. In the latter instance, it is common that an iv administration is also carried out with an appropriate dose of the same test compound. Invention compounds were assayed in the in vivo electrophysiology assay described above and data for representative test compounds is shown in column 1 in Table 1.
The electrophysiological effects of invention compounds were tested in vivo in anesthetized animals according to the following procedures.
as §1, with “Animals” for “The electrophysiological effects of the invention compounds were tested in vivo in anesthetized animals according to the following procedures. Animals”, “are” for “were”, “compound.” for “compound. Invention compounds were assayed in the in vivo electrophysiology assay described above and data for representative test compounds is shown in column 1 in Table 1.”

For series [1], the system named is d-amphetamine stimulated locomotion in mice. Kind of series: Inhibition of d-amphetamine stimulated locomotion. Format: in vivo. Particulars: Mus musculus, ip, 18 mpk i.p., d-amphetamine 2 mg/kg. On the procedure:
B. Behavioral Testing: Inhibition of d-Amphetamine Stimulated Locomotion
The ability of the invention compounds to inhibit d-Amphetamine stimulated locomotor activity was assayed according to the following procedure. Male CD1 mice, 25-30 gm body weight, were brought into the experimental room and allowed at least 30 min of acclimation. Each mouse was placed into the testing enclosure with an infrared beam array that automatically monitors the animal's activity. Mice were habituated in the testing enclosure for 20 min, and then returned to their home cage. Mice were dosed intraperitoneally with test compound in appropriate vehicle 5 minutes before d-Amphetamine injection (2 mpk). Ten minutes after d-Amphetamine injection, mice were tested for locomotor activity for a total of […]. The data was computer collected and expressed as “arbitrary movement units.” All data were analyzed by comparing the groups treated with the test compound to the vehicle control group. The data shown is the % inhibition of hyperactivity induced by acute administration of 2 mg/kg d-amphetamine in mice. The compounds tested produced a statistically significant inhibition of d-amphetamine stimulated locomotion.
Male CD1 mice, 25-30 gm body weight, were brought into the experimental room and allowed at least 30 min of acclimation. Each mouse was placed into the testing enclosure with an infrared beam array that automatically monitors the animal's activity. Mice were habituated in the testing enclosure for 20 min, and then returned to their home cage. Mice were dosed intraperitoneally with test compound in appropriate vehicle 5 minutes before d-Amphetamine injection. Ten minutes after d-Amphetamine injection, mice were tested for locomotor activity for a total of 15 minutes. The data was computer collected and expressed as “arbitrary movement units.” All data were analyzed by comparing the groups treated with the test compound to the vehicle control group.

Molecules are shown by their SMILES.

A word on the inhibition in vivo: it is the change of the read-out against control, counted positive when it falls. By melting point is commonly meant the temperature, or range, at which the solid turns liquid. In turn, `CN(C(=O)c1ccc2nonc2c1)C1CCC1` [Example 6, N-Cyclobutyl-N-methyl-[2,1,3]-benzoxadiazole-5-carboxamide] returned a melting point of 51 to 52 °C. The “In vivo Electrophysiology: % increase in the amplitude of the field EPSP in the dentate gyrus of rat” value (shortened to “In vivo Electrophysiology: % increase”) in the series on AMPA receptor came to 10%. The inhibition in vivo at 18 mg/kg in series [1] stood at 37%.
Consider `CN(C(=O)c1ccc2nonc2c1)[C@H]1CC[C@](C)(O)CC1` [Example 45, N-(trans-4-hydroxy-4-methylcyclohexyl)-N-methyl-[2,1,3]-benzoxadiazole-5-carboxamide], for which the melting point lay in the range of 175 to 176 °C. Further, the “In vivo Electrophysiology: % increase” value in the series on AMPA receptor came out at 19%. The inhibition in vivo at 18 mg/kg in series [1] amounted to 122%.
The compound `CN(C(=O)c1ccc2nonc2c1)C1CCCCC1` [Example 4, N-Cyclohexyl-N-methyl-[2,1,3]-benzoxadiazole-5-carboxamide] returned a melting point of 134 to 135 °C. For the same compound, the “In vivo Electrophysiology: % increase” value in the series with AMPA receptor amounted to 17%. Besides, the inhibition in vivo at 18 mg/kg in series [1] amounted to 80%.
The corresponding values for `CN(C(=O)c1ccc2nonc2c1)C1CCC(=O)CC1` [Example 37, N-Methyl-N-(4-oxocyclohexyl)-[2,1,3]-benzoxadiazole-5-carboxamide] are 183 to 184 °C, 18% and 100%.
